Changes are numbered by the printed parent chain.
Columns and labels:
[1] = target: T1, W43R mutant of HγD (Homo sapiens, UniProt P07320, W43R); test: Kinetic turbidity assay at 42 °C of W43R mutant; type: biochemical; details: for Effect on aggregation of W43R mutant: 0–500 μM, 42 °C for 200 min, G at 400 and 500 μM; for inhibition at 500 µM: 500 μM drug, 42 °C, 200 min, read-out: Inhibition of aggregation (%) W43R
T1 construct: made in house; host or cells: E. coli BL21(DE3) pLysS
T1 sequence (P07320 1-174 W43R): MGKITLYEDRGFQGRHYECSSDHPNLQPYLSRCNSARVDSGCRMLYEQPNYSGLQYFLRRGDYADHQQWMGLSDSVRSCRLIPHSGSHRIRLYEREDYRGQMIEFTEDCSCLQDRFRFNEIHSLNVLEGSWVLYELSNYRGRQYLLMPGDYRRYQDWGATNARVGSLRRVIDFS
Protocol: (§1) Aggregation kinetics assays at 600 nm in the presence of varying concentrations (0, 100, 200, 300, 400, and 500 μM) of our selected drugs were also performed on mutants of HγD (W43R, W42Q, R14C, and R58H) and MγS (F9S) at a concentration of 1 mg/ml in 50 mM K3PO4 buffer (pH 7.2) in a total volume of 100 μl. WT-HγD and WT-MγS crystallin served as controls for their respective mutant versions. For W43R mutant, aggregation assay was done at 42 °C for a total of 200 min. Absorbance was monitored every 10 min. For R14C and R58H mutants, end-point turbidity assay was done at 72 °C for 20 min. […] All the experiments were run in duplicates or triplicates.

[2] = target: T2, MγS (Mus musculus, UniProt O35486); test: Steady-state tryptophan fluorescence quenching, MγS; type: binding
T2 construct: made in house; host or cells: E. coli BL21(DE3) pLysS, pET17b vector
T2 sequence (O35486 1-178): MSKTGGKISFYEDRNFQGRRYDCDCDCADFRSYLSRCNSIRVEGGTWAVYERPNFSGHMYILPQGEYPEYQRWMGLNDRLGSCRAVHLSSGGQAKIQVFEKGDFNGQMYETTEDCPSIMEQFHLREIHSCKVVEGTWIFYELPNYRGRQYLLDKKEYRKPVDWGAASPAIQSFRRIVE
Protocol: (§2) Tryptophan fluorescence can be used for studying conformational changes resulting from protein–drug interactions ([44]). Fluorescence quenching of aromatic fluorophores in HγD and MγS by drugs C and G at three different temperatures (25, 30, and 37 °C) was studied in the presence of varying concentrations of drug C and G (0–250 μM). As shown in Figs. S5A and S6A, both HγD and MγS have a strong emission peak at 330 nm when excited at 295 nm. In both cases, quenching occurs with gradual addition of C and G at all three temperatures. Overall, quenching of Trp fluorescence emission is at highest at 25 °C (Figs. S5A and S6A) followed by 30 °C and lowest at 37 °C. […] The slope of plot Fo/F versus [Q] gives Ksv (Figs. S5B and S6B), whereas Kb is obtained from intercept of plot log (Fo/F − 1) versus log[Q] (Figs. S5C and S6C). […] For drug M, Kb values are of the order 10^2 M^−1 only. Fluorescence quenching can be either because of random collision between the molecules (dynamic interaction) or because of actual affinity between a protein pocket and drug (static interaction). Dynamic interactions are weaker and nonspecific in nature, whereas static interactions are stronger and more specific ([47]). For more information on the type of interaction, Kq was calculated and compared with the standard value of 2 × 10^10 M^−1s^−1, which is the maximum scatter collision quenching constant of various quenchers with biopolymers ([48]). […] Furthermore, the differential response of Ksv toward temperature change also clarifies the type of quenching. In static quenching, Ksv decreases with an increase in temperature because of the formation of complex with protein, which undergoes dissociation on increasing temperature.
(§3) To gauge the strength of the major forces involved in drug–protein complex formation, change in free energy was calculated using Gibbs–Helmholtz equation (Equation 3).(3) ΔG=-RTlnKb ([50]) where, R is gas constant and its value is […], T is absolute temperature (Kelvin) and Kb is binding constant whose value is already calculated using Equation 2. […] Free energy changes are negative at all three temperatures, being maximal at 25 °C. For C, G, and M interaction with HγD, ΔG values were −6.4, −7.9, and −1.9 kcal/mol (at 25 °C), that is, similar to those obtained by molecular docking as described later. These values also reflect the fact that drug M had the least protective effect on unfolding or aggregation of various γ-crystallins (Figs. 2 and S4).
(§4) All the steady-state fluorescence measurements were recorded on Fluoromax Spectrofluorometer (Horiba Scientific). For fluorescence quenching measurements, 10 μM of both HγD and MγS crystallins were titrated with varying concentrations of drugs C, G, and M (0–250 μM) at 25, 30, and 37 °C. These samples were excited at 295 nm, and the fluorescence emission was collected from 310 to 410 nm.

[3] = target: T3, HγD (Homo sapiens, UniProt P07320); test: Steady-state tryptophan fluorescence quenching, HγD; type: binding
T3 construct: made in house; host or cells: E. coli BL21(DE3) pLysS, pET3d vector
T3 sequence (P07320 1-174): T1 sequence (P07320 1-174 W43R) with R43W
Protocol: as §2, §3, §4

[4] = target: T4, R14C mutant of HγD (Homo sapiens, UniProt P07320, R15C); test: End-point turbidity assay (72 °C, 20 min) of R14C mutant; type: biochemical; details: 500 μM drug, 5 mM DTT, read-out: Inhibition of aggregation (%) R14C
T4 construct: made in house; host or cells: E. coli BL21(DE3) pLysS
T4 sequence (P07320 1-174 R15C): T1 sequence (P07320 1-174 W43R) with R15C, R43W
Protocol: as §1

| Compound | Effect on aggregation of W43R mutant [1] | inhibition at 500 µM [1] | KSV ([2]; 25 °C) | Kq ([2]; 25 °C) | ΔG ([2]; 25 °C) | KSV ([2]; 30 °C) | Kq ([2]; 30 °C) | ΔG ([2]; 30 °C) | KSV ([2]; 37 °C) | ΔG ([2]; 37 °C) | KSV ([3]; 25 °C) | Kq ([3]; 25 °C) | ΔG ([3]; 25 °C) | KSV ([3]; 30 °C) | Kq ([3]; 30 °C) | ΔG ([3]; 30 °C) | KSV ([3]; 37 °C) | ΔG ([3]; 37 °C) | ΔG ([3]; at 25 °C) | inhibition at 500 µM [4] | other results |
| --- | --- | --- | --- | --- | --- | --- | --- | --- | --- | --- | --- | --- | --- | --- | --- | --- | --- | --- | --- | --- | --- |
| Cc1cc(C(C#N)c2ccc(Cl)cc2)c(Cl)cc1NC(=O)c1cc(I)cc(I)c1O (stereo not drawn) [drug C, Closantel] | worsened the aggregation | -34% | 4.828 M^−1 ×10^3 | 0.847 M^−1 s^−1 ×10^12 | −7.0 kcalM^−1 | 4.249 M^−1 ×10^3 | 0.745 M^−1 s^−1 ×10^12 | −6.2 kcalM^−1 | 2.988 M^−1 ×10^3 | −4.1 kcalM^−1 | 4.215 M^−1 ×10^3 | 0.739 M^−1 s^−1 ×10^12 | −6.4 kcalM^−1 | 4.197 M^−1 ×10^3 | 0.736 M^−1 s^−1 ×10^12 | −6.2 kcalM^−1 | 4.107 M^−1 ×10^3 | −5.9 kcalM^−1 | -6.4 kcal/mol | 68% | Kq ([2]; 37 °C): 0.524 M^−1 s^−1 ×10^12; Kq ([3]; 37 °C): 0.72 M^−1 s^−1 ×10^12 |
| CC(C)=CCC[C@]1(C)C=Cc2c(O)c3c(c(CC=C(C)C)c2O1)O[C@]12C(=C[C@@H]4C[C@H]1C(C)(C)O[C@@]2(C/C=C(/C)C(=O)O)C4=O)C3=O [drug G, Gambogic acid] | protected the mutant against aggregation | 52% | 7.283 M^−1 ×10^3 | 1.37 M^−1 s^−1 ×10^12 | – | 8.034 M^−1 ×10^3 | 1.4 M^−1 s^−1 ×10^12 | −5.6 kcalM^−1 | 4.905 M^−1 ×10^3 | −6.5 kcalM^−1 | 10.252 M^−1 ×10^3 | 1.79 M^−1 s^−1 ×10^12 | −7.9 kcalM^−1 | 8.440 M^−1 ×10^3 | 1.47 M^−1 s^−1 ×10^12 | −7.7 kcalM^−1 | 7.880 M^−1 ×10^3 | −7.2 kcalM^−1 | -7.9 kcal/mol | 55% | Kq ([2]; 37 °C): 0.86 M^−1 s^−1 ×10^12; Kq ([3]; 37 °C): 1.38 M^−1 s^−1 ×10^12 |
| O=C(O)CCCCCCCCCCCC[C@@H]1C=CCC1 [drug M, Chaulmoogric acid] | no effect | 14% | 0.793 M^−1 ×10^3 | 0.14 M^−1 s^−1 ×10^12 | −2.7 kcalM^−1 | 0.733 M^−1 ×10^3 | 0.13 M^−1 s^−1 ×10^12 | −2.6 kcalM^−1 | 0.491 M^−1 ×10^3 | −2.2 kcalM^−1 | 0.288 M^−1 ×10^3 | 0.051 M^−1 s^−1 ×10^12 | −1.9 kcalM^−1 | 0.507 M^−1 ×10^3 | 0.08 M^−1 s^−1 ×10^12 | −2.5 kcalM^−1 | 0.680 M^−1 ×10^3 | −2.6 kcalM^−1 | -1.9 kcal/mol | 18% | – |

— paper PMC9525908, “α-Crystallin chaperone mimetic drugs inhibit lens γ-crystallin aggregation: Potential role for cataract prevention” (The Journal of Biological Chemistry, 2022)
